This is an account of results in PubChem BioAssay (NCI).

What all share (assay): NCI-60 cell line screen, 48 h
Assay [1] concerns 786-0 renal.
Assay [2] relates to CCRF-CEM leukemia.
Assay [3] relates to DU-145 prostate.
The test system of assay [4] is EKVX NSCLC.
Assay [5] concerns HCT-116 colon.
Assay [6] has as its system HOP-62 NSCLC.
Assay [7] has as its system KM12 colon.
Assay [8] relates to MALME-3M melanoma.
The subject of assay [9] is MOLT-4 leukemia.
In assay [10] the test system is OVCAR-4 ovarian.
Assay [11] relates to PC-3 prostate.
The subject of assay [12] is RXF 393 renal.
Assay [13] deals with SK-OV-3 ovarian.
In assay [14] the test system is SN12C renal.
Assay [15] deals with TK-10 renal.
Assay [16] has as its system MCF7 breast.

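In this assay, cells in 96-well plates receive the compound at five concentrations for 48 hours. Endpoints are linearly interpolated between the surrounding concentrations. TGI is the concentration that stops growth completely.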

Turning to `Cc1ccc(-n2cc(-c3ccc(Cl)cc3)c3c(N/N=C4\SCC(=O)N4C)ncnc32)cc1`, the TGI is 10.6 µM in [1]; greater than 100 µM in assay [2]; greater than 100 µM in [3]; greater than 100 µM in assay [4]; 38.4 µM in assay [5]; 98.8 µM in assay [6]. The TGI in assay [7] is greater than 100 µM; in assay [8], 9.48 µM; in [9], greater than 100 µM; in assay [10], 8.03 µM; in assay [11], 10.9 µM; in assay [12], 48.1 µM. The figures for the TGI in assay [13], in assay [14] and in assay [15] were 13.8 µM, greater than 100 µM and 8.18 µM, respectively.

`CCC/C=C1\CCC(CN(C)C)C1=O` (stereo unspecified): the TGI in assay [1] is 7.16 µM; in [2] it was 1.97 µM; in assay [4], 12.3 µM; in [5], 23.1 µM; in assay [6], 29.2 µM; in [7] it was 15.3 µM. The TGI is 11.4 µM in [8]; 12.6 µM in assay [9]; 38.6 µM in assay [10]; greater than 56.7 µM in assay [13]; 32.7 µM in assay [14]; 14.6 µM in assay [15].

`Cc1c(CCO)c(=O)n2c([nH]c3ccccc32)c1C#N`: the TGI in assay [1], in assay [2], in assay [4], in [5], in assay [6] and in [7] was greater than 100 µM throughout. Also, the TGI in assay [8], in [10], in assay [12], in [13] and in assay [15] was greater than 100 µM each time.

Turning to `O=C(O)C[C@@H]1[C@@H](O)[C@@H](O)CN2C(=O)c3ccccc3[C@H]12`, the TGI in assay [1], in assay [3], in assay [4], in assay [5], in [6] and in assay [7] was greater than 100 µM throughout. Moreover, the TGI in assay [8], in [16], in assay [9], in assay [10], in assay [11] and in [12] was greater than 100 µM throughout. Further, the TGI in assay [13], in [14] and in assay [15] was greater than 100 µM each time.

On to `O=[N+]([O-])c1ccc(C(Nc2ccccc2)P(c2ccccc2)c2ccccc2)cc1` (stereo unspecified), for which the TGI in assay [1], in [3], in assay [4], in assay [5], in assay [6] and in [7] was greater than 100 µM in each case. For the same molecule, the TGI in [8], in [16], in [9], in [10], in assay [11] and in assay [12] was greater than 100 µM each time. Further, the TGI in assay [13], in assay [14] and in assay [15] was greater than 100 µM in each case.

`Cc1c(-c2ccccc2)nn2cc(-c3ccccc3)nnc12`: the TGI in [1], in assay [2], in assay [3], in assay [5], in [6] and in [7] was greater than 100 µM each time. Besides, the TGI is 39.6 µM in assay [8]; greater than 100 µM in assay [9]; greater than 100 µM in assay [10]; greater than 100 µM in assay [11]; 47.8 µM in assay [12]; greater than 100 µM in assay [13]. The TGI in assay [14] and in assay [15] was greater than 100 µM throughout.

`CCN(CC)C(=S)Nc1ccc(-c2cc3ccc(O)cc3oc2=O)cc1`: the TGI in assay [1], in [2], in assay [3], in assay [4], in assay [5] and in [7] was greater than 100 µM each time. For the same molecule, the TGI is 69.2 µM in [8]; greater than 100 µM in assay [9]; greater than 100 µM in assay [11]; greater than 100 µM in [12]; greater than 100 µM in assay [13]; greater than 100 µM in assay [14]. For the same molecule, the TGI in [15] is greater than 100 µM.

For `CN(C)c1ccc(C=C2C(=O)N(c3ccccc3)N(c3ccccc3)C2=O)cc1`, the TGI in assay [1], in assay [3], in assay [4], in [5], in assay [6] and in assay [7] was greater than 100 µM throughout. Further, the TGI in [8], in assay [16], in assay [9], in assay [11], in assay [13] and in assay [14] was greater than 100 µM in each case. Besides, in [15], the TGI is greater than 100 µM.

For `O=C1c2ccccc2C(=O)c2c(O)c(NCCCNCCO)cc(O)c21`, the TGI in [1] is 23 µM; in assay [2] it was 15.5 µM; in assay [4], 28.3 µM; in [6], 15.4 µM; in assay [7], 21 µM; in assay [8] it was 31.2 µM. The TGI was determined as 14 µM in assay [9]; 36.4 µM in [10]; 26.1 µM in [13]; 25.8 µM in [14]; 22.1 µM in assay [15].

As for `Cc1nc2c(o1)C(=Nc1ccccc1)c1ccccc1C2=O`, the TGI came out at 28.5 µM in assay [1]; 45.9 µM in assay [2]; 27.1 µM in assay [4]; 23.2 µM in assay [5]; 28.1 µM in [6]; 30.9 µM in assay [7]. Also, the TGI came out at 12.3 µM in [8]; 48.3 µM in [9]; 44 µM in assay [12]; 28 µM in [13]; 22.8 µM in [14]; 69.9 µM in [15].
